Patent US10626095B2, “Cyanotriazole compounds” (OTSUKA PHARMACEUTICAL CO., LTD., priority 2013, dated 2020)

Test system: NaCT-CHO (CHO cells stably expressing human NaCT)
Test: Assay of the citric acid cycle activation ([1,5-14C]-citric acid, diffusion of [14C]-CO2)
Format: cell-based
Details: 1 hour incubation at 37° C. with [1,5-14C]-citric acid
Description: Assay of the Citric Acid Cycle Activation
(1) Construction of the Human NaCT Expression Vector pME-NaCT
The human NaCT (also called SLC13A5 or NAC2; GenBank accession No. NM_177550) cDNA was inserted into the EcoRI-NotI site of the mammalian expression vector pME18S (GenBank accession No. AB009864) and purified by Qiagen Plasmid Maxi Kit (Qiagen).
(2) Establishment of NaCT Stably Expressed CHO Cells
The pME-NaCT vector and the pcDNA™3.1 vector containing the neomycin resistance gene (Life Technologies) were co-transfected into CHO-K1 cells (ATCC) by Lipofectaimine 2000 reagent (Life Technologies). The next day the cells were subcultured in Nutrient Mixture F-12 Ham (Sigma-Aldrich) with 10% FBS (Biological Industries), and Geneticin (Life Technologies) was added (final concentration 350 μg/mL) in the following day. CHO cell clones stably expressing NaCT were given by neomycin resistant cell screening and limiting dilution method. Established cell lines (named NaCT-CHO) were also maintained in culture medium (Nutrient Mixture F-12 Ham) with 10% FBS and 350 μg/mL Geneticin. For control cells (named pME-CHO) preparation, the naive pME18S were also transfected instead of pME-NaCT into CHO-K1 cells.
(3) Assay of the Citric Acid Cycle Activation
NaCT-CHO and pME-CHO were plated at 20,000 cells/well into white CulturPlate™-96 (PerkinElmer) two days before the assay. Prior to assay incubation, the cultured plates were washed twice with washing buffer, 10 mM HEPES-Tris(pH7.4) containing 140 mM choline chloride, 2 mM KCl, 1 mM CaCl2, 1 mM MgCl2. The compounds to be tested were dissolved and diluted in DMSO (Wako Pure Chemical industries) to 1,000 times of a final concentration, and further diluted to two times as high as the final concentration in assay buffer, 10 mM HEPES-Tris(pH7.4) containing 140 mM NaCl, 2 mM KCl, 1 mM CaCl2, 1 mM MgCl2. The range of final concentrations was properly determined based on the test compounds activity. Each 25 μL compound solution was added to well and subsequently 25 μL radio-labeled substrate solution containing 0.4 mM (0.4 MBq/mL) [1,5-^14C]-citric acid (PerkinElmer) in the assay buffer was added. After 1 hour incubation at 37° C., the reaction mixture was discarded and washed three times with pre-chilled washing buffer and then 0.1 mL MicroScint 20 (PerkinElmer) was added to well. The plate was sealed with TopSeal-A (PerkinElmer) and the radioactivity was measured using a TopCount (PerkinElmer). Non-specific activity (NS cpm) and total radio activity (Total cpm) were determined by counting of pME-CHO plated wells and NaCT-CHO plated wells without compounds, respectively. Diffusion of [^14C]—CO2 was able to be estimated from residual radioactivity (R cpm) by an equation (Total−R)/(Total−NS)×100(%). The difference of Total and R was disappeared in the presence of 0.1 μM antimycin A. EC50 values were calculated by regression analysis using SAS Statistical Analysis System (SAS institute Japan Ltd. Release 9.1).

Row | Structure (SMILES) | EC50
1 | CCOc1c(/C=C/c2cccc(C(F)(F)F)c2)cccc1-c1nn[nH]c1C#N [Example 43, 5-{2-ethoxy-3-[(E)-2-(3-trifluoromethyl-phenyl)-vinyl]-phenyl}-3H-[1,2,3]triazole-4-carbonitrile] | 0.67 µM
2 | CCOc1ccc(/C=C/c2cccc(-c3nn[nH]c3C#N)c2)cc1 [Example 44, 5-{3-[(E)-2-(4-ethoxy-phenyl)-vinyl]-phenyl}-3H-[1,2,3]triazole-4-carbonitrile] | 0.69 µM
3 | N#Cc1ccc(-c2nn[nH]c2C#N)cc1/C=C/c1cccc(C(F)(F)F)c1 [Example 45, 5-{4-cyano-3-[(E)-2-(3-trifluoromethyl-phenyl)-vinyl]-phenyl}-3H-[1,2,3]triazole-4-carbonitrile] | 0.91 µM
4 | N#Cc1[nH]nnc1-c1ccc(C(F)(F)F)c(/C=C/c2cccc(C(F)(F)F)c2)c1 [Example 46, 5-{4-trifluoromethyl-3-[(E)-2-(3-trifluoromethyl-phenyl)-vinyl]-phenyl}-3H-[1,2,3]triazole-4-carbonitrile] | 0.98 µM
5 | N#Cc1[nH]nnc1-c1cccc(/C=C/c2ccc(C(F)(F)F)cn2)c1 [Example 48, 5-{3-[(E)-2-(5-trifluoromethyl-pyridin-2-yl)-vinyl]-phenyl}-3H-[1,2,3]triazole-4-carbonitrile] | 0.43 µM
6 | N#Cc1[nH]nnc1-c1cccc(/C=C\c2cc(C(F)(F)F)cc(C(F)(F)F)c2)c1 [Example 53, 5-{3-[(Z)-2-(3,5-bis-trifluoromethyl-phenyl)-vinyl]-phenyl}-3H-[1,2,3]triazole-4-carbonitrile] | 0.48 µM
7 | CN(Cc1cccc(-c2nn[nH]c2C#N)c1)c1ccc(F)cc1 [Example 54, 5-(3-{[N-(4-fluoro-phenyl)-N-methyl-amino]-methyl}-phenyl)-3H-[1,2,3]triazole-4-carbonitrile] | 0.43 µM
8 | N#Cc1[nH]nnc1-c1cccc(COc2ccc(C(F)(F)F)cn2)c1 [Example 56, 5-[3-(5-trifluoromethyl-pyridin-2-yloxymethyl)-phenyl]-3H-[1,2,3]triazole-4-carbonitrile] | 0.73 µM
9 | N#Cc1[nH]nnc1-c1cccc(COc2cc(C(F)(F)F)cc(C(F)(F)F)c2)c1 [Example 57, 5-[3-(3,5-bis-trifluoromethyl-phenoxymethyl)-phenyl]-3H-[1,2,3]triazole-4-carbonitrile] | 0.48 µM
10 | CN(Cc1cc(C(F)(F)F)cc(C(F)(F)F)c1)c1cccc(-c2nn[nH]c2C#N)c1 [Example 58, 5-{3-[N-(3,5-bis-trifluoromethyl-benzyl)-N-methyl-amino]-phenyl}-3H-[1,2,3]triazole-4-carbonitrile] | 0.72 µM
11 | N#Cc1[nH]nnc1-c1cccc(OCc2cc3ccccc3o2)c1 [Example 59, 5-[3-(benzofuran-2-ylmethoxy)-phenyl]-3H-[1,2,3]triazole-4-carbonitrile] | 0.5 µM
12 | COc1ccccc1COc1cc(-c2nn[nH]c2C#N)cc(C(F)(F)F)c1 [Example 61, 5-[3-(2-methoxy-benzyloxy)-5-trifluoromethyl-phenyl]-3H-[1,2,3]triazole-4-carbonitrile] | 0.44 µM
13 | COc1cc(OCc2cc(C(F)(F)F)ccc2C(F)(F)F)cc(-c2nn[nH]c2C#N)c1 [Example 62, 5-[3-(2,5-bis-trifluoromethyl-benzyloxy)-5-methoxy-phenyl]-3H-[1,2,3]triazole-4-carbonitrile] | 0.6 µM
14 | N#Cc1[nH]nnc1-c1cc(OCc2cc(C(F)(F)F)ccc2C(F)(F)F)cc(C(F)(F)F)c1 [Example 63, 5-[3-(2,5-bis-trifluoromethyl-benzyloxy)-5-trifluoromethyl-phenyl]-3H-[1,2,3]triazole-4-carbonitrile] | 0.96 µM
15 | CC(Oc1cc(-c2nn[nH]c2C#N)cc(C(F)(F)F)c1)c1ccccc1 (stereo not drawn) [Example 64, 5-[3-(1-phenyl-ethoxy)-5-trifluoromethyl-phenyl]-3H-[1,2,3]triazole-4-carbonitrile] | 0.24 µM
16 | N#Cc1[nH]nnc1-c1cccc(CSCc2ccc(OC(F)(F)F)cc2)c1 [Example 65, 5-[3-(4-trifluoromethoxy-benzylsulfanylmethyl)-phenyl]-3H-[1,2,3]triazole-4-carbonitrile] | 0.79 µM
17 | N#Cc1[nH]nnc1-c1cccc(CCOc2ccc(C(F)(F)F)cn2)c1 [Example 66, 5-{3-[2-(5-trifluoromethyl-pyridin-2-yloxy)-ethyl]-phenyl}-3H-[1,2,3]triazole-4-carbonitrile] | 0.66 µM

Row | Structure (SMILES) | EC50
18 | CC(Cc1ccccc1)Oc1cc(-c2nn[nH]c2C#N)cc(C(F)(F)F)c1 (stereo not drawn) [Example 67, 5-[3-(1-methyl-2-phenyl-ethoxy)-5-trifluoromethyl-phenyl]-3H-[1,2,3]triazole-4-carbonitrile] | 0.49 µM
19 | N#Cc1[nH]nnc1-c1ccc(-c2cccc(C(F)(F)F)c2)cc1 [Example 68, 5-(3′-trifluoromethyl-biphenyl-4-yl)-3H-[1,2,3]triazole-4-carbonitrile] | 0.46 µM
20 | N#Cc1[nH]nnc1-c1ccc(-c2cc(C(F)(F)F)ccn2)cc1 [Example 69, 5-[4-(4-trifluoromethyl-pyridin-2-yl)-phenyl]-3H-[1,2,3]triazole-4-carbonitrile] | 0.53 µM
21 | Cc1cc(-c2nn[nH]c2C#N)ccc1Cc1cccc(C(F)(F)F)c1 [Example 71, 5-[3-methyl-4-(3-trifluoromethyl-benzyl)-phenyl]-3H-[1,2,3]triazole-4-carbonitrile] | 0.59 µM
22 | N#Cc1[nH]nnc1-c1ccc(Oc2cccc(C(F)(F)F)c2)c(F)c1 [Example 72, 5-[3-fluoro-4-(3-trifluoromethyl-phenoxy)-phenyl]-3H-[1,2,3]triazole-4-carbonitrile] | 0.3 µM
23 | N#Cc1[nH]nnc1-c1ccc(/C=C/c2cccc(C(F)(F)F)c2)cc1F [Example 73, 5-{2-fluoro-4-[(E)-2-(3-trifluoromethyl-phenyl)-vinyl]-phenyl}-3H-[1,2,3]triazole-4-carbonitrile] | 0.73 µM
24 | N#Cc1[nH]nnc1-c1nc(-c2ccc(OC(F)(F)F)cc2)cs1 [Example 74, 5-[4-(4-trifluoromethoxy-phenyl)-thiazol-2-yl]-3H-[1,2,3]triazole-4-carbonitrile] | 2.91 µM
25 | N#Cc1[nH]nnc1-c1csc(-c2ccc(F)c(Cl)c2)n1 [Example 76, 5-[2-(3-chloro-4-fluoro-phenyl)-thiazol-4-yl]-3H-[1,2,3]triazole-4-carbonitrile] | 0.59 µM
26 | N#Cc1[nH]nnc1-c1csc(-c2ccc(OC(F)(F)F)cc2)n1 [Example 80, 5-[2-(4-trifluoromethoxy-phenyl)-thiazol-4-yl]-3H-[1,2,3]triazole-4-carbonitrile] | 0.87 µM
27 | N#Cc1[nH]nnc1-c1csc(/C=C/c2cccc(C(F)(F)F)c2)n1 [Example 81, 5-{2-[(E)-2-(3-trifluoromethyl-phenyl)-vinyl]-thiazol-4-yl}-3H-[1,2,3]triazole-4-carbonitrile] | 0.99 µM
28 | N#Cc1[nH]nnc1-c1csc(OCc2ccc(Cl)cc2)n1 [Example 82, 5-[2-(4-chloro-benzyloxy)-thiazol-4-yl]-3H-[1,2,3]triazole-4-carbonitrile] | 0.76 µM
29 | CN(c1ccc(Cl)cc1)c1nc(-c2nn[nH]c2C#N)cs1 [Example 83, 5-{2-[N-(4-chloro-phenyl)-N-methyl-amino]-thiazol-4-yl}-3H-[1,2,3]triazole-4-carbonitrile] | 1.08 µM
30 | CCN(c1cccc(C(F)(F)F)c1)c1nc(-c2nn[nH]c2C#N)cs1 [Example 84, 5-{2-[N-ethyl-N-(3-trifluoromethyl-phenyl)-amino]-thiazol-4-yl}-3H-[1,2,3]triazole-4-carbonitrile] | 1.5 µM
31 | N#Cc1[nH]nnc1-c1csc(Oc2cccc(C(F)(F)F)c2)n1 [Example 85, 5-[2-(3-trifluoromethyl-phenoxy)-thiazol-4-yl]-3H-[1,2,3]triazole-4-carbonitrile] | 0.69 µM
32 | N#Cc1[nH]nnc1-c1csc(Sc2ccc(Cl)cc2)n1 [Example 86, 5-[2-(4-chloro-phenylsulfanyl)-thiazol-4-yl]-3H-[1,2,3]triazole-4-carbonitrile] | 0.67 µM
33 | CCCCCCc1nc(-c2nn[nH]c2C#N)cs1 [Example 87, 5-(2-hexyl-thiazol-4-yl)-3H-[1,2,3]triazole-4-carbonitrile] | 0.9 µM
